Results: US4365066A, “2(4-n-Hexadecyl amino or oxy phenyl) 5 ethoxy oxazoleacetic acid derivatives” (Yoshitomi Pharmaceutical Industries Ltd., priority 1979, dated 1982)
Like-named read-outs stand apart in the source and are kept apart here.

Columns and labels:
[1] = tested on: Cholesterol and triglyceride in the serum; assay: (i) Serum cholesterol and triglyceride reduction in rats fed a diet containing 1% of cholesterol; format: in vivo, Male Sprague-Dowley rats; conditions: rats on diet containing 1% cholesterol, test compound 0.1% (W/W) in diet, oral, 5 days, control = 100%
Protocol: (§1) (i) Male Sprague-Dowley rats were used. Each group was composed of 8 animals. Rats were fed a diet containing 1% of cholesterol. The test compound was orally administered to the animal by feeding with the diet to which the compound was blended in a ratio of 0.1% (W/W) for 5 days. Cholesterol and triglyceride in the serum were determined by the standard methods using an autoanalyzer (Technicon Inc.). The levels in the control group were considered as 100% and the reduction rate in the test group was calculated.

[2] = (iii) Acute toxicity (LD50) in mice; conditions: mouse, in vivo, mortality within 7 days
Protocol: (iii) Male dd-strain mice were used. Each group was composed of 10 animals. The test compound was administered intraperitoneally or orally to the animals. The LD50 (mg/kg) was calculated from the mortality within 7 days after administration of the test compound.

blood cholesterol = assay: (iv) Blood cholesterol reduction in hyperlipemic monkeys fed a diet containing 0.25% cholesterol; format: in vivo; conditions: hyperlipemic Rhesus monkeys, diet with 0.25% cholesterol; diet containing 0.7% (W/W) test compound, 15 days; vs control group
[3] = tested on: Cholesterol and triglyceride in the serum; assay: (ii) Serum cholesterol and triglyceride reduction in rats fed a conventional diet; format: in vivo, Male Sprague-Dowley rats; conditions: rats on conventional diet, test compound 0.1% (W/W) in diet, oral, 5 days, control = 100%
Protocol: as §1, with “calculated. (ii) With the exception that rats were fed a conventional diet instead of the diet containing 1% cholesterol, a test was carried out in the same condition (rats used, administration method, period, concentration of test compound and cholesterol and triglyceride determination) as in the above test (i).” for “calculated.”

[4] = ip, intraperitoneal, read-out: LD50 Intraperitoneal administration
[5] = oral, read-out: LD50 Oral administration

| SMILES | Reduction Rate (%) Cholesterol [1] [%] | Reduction Rate (%) Triglyceride [1] [%] | LD50 at 168 h [2, 4] [mg/kg] | LD50 at 168 h [2, 5] [mg/kg] | reduction activity of blood cholesterol (blood cholesterol) | Reduction Rate (%) Cholesterol [3] [%] | Reduction Rate (%) Triglyceride [3] [%] |
| --- | --- | --- | --- | --- | --- | --- | --- |
| CCCCCCCCCCCCCCCCNc1ccc(-c2nc(CC(=O)[O-])c(OCC)o2)cc1.[Na+] | 31 | 28 | > 1000 | > 2500 | outstanding reduction activity | 26 | 44 |
| CCCCCCCCCCCCCCCCOc1ccc(-c2nc(CC(=O)O)c(OCC)o2)cc1 [Compound A, 2-(4-n-Hexadecyloxyphenyl)-5-ethoxy-4-oxazoleacetic acid] | 21 | 35 | > 1000 | > 2500 | outstanding reduction activity | 29 | 44 |
| CCCCCCCCCCCCCCCCOc1ccc(-c2nc(CC(=O)O)c(Oc3ccc(Cl)cc3)o2)cc1 [Compound C, 2-(4-n-Hexadecyloxyphenyl)-5-(4-chlorophenoxy)-4-oxazoleacetic acid] | 31 | 37 | – | – | – | – | – |
| CCOc1oc(-c2ccc(OCc3ccc(Cl)cc3)cc2)nc1CC(=O)O [Compound D, 2-[4-(4-Chlorobenzyloxy)phenyl]-5-ethoxy-4-oxazoleacetic acid] | 37 | 42 | – | – | – | 19 | 53 |
| CCOC(=O)C(C)(C)Oc1ccc(Cl)cc1 [Compound E, Clofibrate, reference compound] | 22 | 23 | > 1000 | > 1450 | – | 23 | 34 |
